For two sequences, concentration/toxicity ratio and toxic effect results are on record in paper PMC11279616 (Pharmaceuticals, 2024).

Data set [1] relates to Vero E6 cells. It is filed as cell-based, African green monkey. The conditions noted are these: at 50 and at 100 μg, MTS. As to the method: For the MTS assay, VERO E6 cells (2 × 10^4/well) were seeded into 96-well plates in triplicate and cultured in growth medium. Then, different peptide concentrations were added, and the viability was tested every day for three consecutive days using the CellTiter […] Aqueous One Solution Cell Proliferation Assay kit (CTB169; Promega, Fitchburg, WI, USA) following the manufacturers manual. Untreated cells were used for value normalizations.

The subject of data set [2] is Vero E6 cells. The note with it: 100 µg.

Where no end group is shown, it is not given here.

In the case of VTNATAPNTDVSVSLSMILQTISASI [pep6], the concentration/toxicity ratio entry with Vero E6 cells [1] is “best concentration/toxicity ratio”. For “VVNTDSLSSVTNATSIQITAPASMLI [DPP4_270–295]”, the toxic effect result with Vero E6 cells [2] is “without observing any toxic effect”.
